Patent EP4702978A1, “AGENT FOR TREATING OR PREVENTING AMYOTROPHIC LATERAL SCLEROSIS” (Socium Inc., priority 2023, dated 2024)
“Also recorded” adds a separate entry of the source. Read-outs that look alike come from different tables or passages of the source.

Experiments:
[1] = system: Neuro2a cells transfected with the TDP-43 gene; assay: Inhibition of cell death in neuronally differentiated Neuro2a cells transfected with the TDP-43 gene (Example 1); type: cell-based, Mouse; details: evaluated 7 days after transfection; for EC50: Mus musculus, N2a, compound added 5 hours after transfection, 10-10,000 nmol/L, relative viability, read-out: EC50 (inhibition of cell death in nerve cells forcibly expressing TDP-43); for inhibition of cell death: cells transfected with the TDP-43 gene, Figures 3C and 4
Description: (§1) Mouse neuroblastoma (Neuro2a) cells were seeded on a dish. The Neuro2a cells were cultured in a culture medium containing DMEM+10% FBS at 37°C in the presence of 5% CO2. On the first day after seeding, differentiation into neurons was initiated. Differentiation into neurons was performed in a culture medium containing DMEM+2% FBS+20 µmol/L retinoic acid. On the fourth day after seeding, cells were transfected with synthesized TDP-43 mRNA by a lipofection method. Cells were sampled at 6 hours, 9 hours, 12 hours, 15 hours, 18 hours, and 21 hours after transfection. […] For sampling, cells were lysed in an RIPA buffer and centrifuged at 22,000 Xg for 30 minutes at 4°C, the supernatant was used as the soluble fraction, the precipitate was used as the insoluble fraction, and equal volumes of a 2×SDS sample buffer were added to the respective fractions and heated at 95°C for 5 minutes to prepare electrophoresis samples. The electrophoresis samples were subjected to electrophoresis using a polyacrylamide gel, TDP-43 was then transferred to a PVDF membrane. TDP-43 was detected through chemiluminescence using anti-TDP-43 antibodies as primary antibodies and HRP-conjugated anti-rabbit antibodies as secondary antibodies. […] The insoluble fractions of TDP-43 indicate the aggregation of TDP-43.
Neuro2a cells were seeded on a dish. On the first day after seeding, differentiation into neurons was initiated. On the fourth day after seeding, cells were transfected with the TDP-43 gene. […] In addition, as a control, 10 nmol/L, 50 nmol/L, 100 nmol/L, 500 nmol/L, 1,000 nmol/L, 5,000 nmol/L, or 10,000 nmol/L of ropinirole was added to a culture medium.
The proportion of dead cells was evaluated 7 days after the cells were transfected with the TDP-43 gene.

TDP-43 = assay: Soluble and insoluble fractions of TDP-43 in TDP-43-transfected Neuro2a cells, Western blot (Example 2); type: cell-based, Mouse; details: 10 µmol/L added 6 hours after transfection, cultured for 12 hours; for soluble fractions versus insoluble fractions of TDP-43 in the cells: Figure 5; for proportion of insoluble fractions based on a total number of soluble fractions and insoluble fractions of TDP-43: Figure 6
Description: as §1
Neuro2a cells were seeded on a dish. On the first day after seeding, differentiation into neurons was initiated. On the fourth day after seeding, cells were transfected with the TDP-43 gene.

[2] = system: TDP-43 in motor neurons derived from iPS cells of ALS patients; assay: Soluble and insoluble fractions of TDP-43 in motor neurons derived from iPS cells of ALS patients, Western blot (Example 3); type: cell-based, human; details: 10 µmol/L, cultured for 20 days; for bands for soluble and insoluble fractions of TDP-43: Figure 7; for average proportion of insoluble fractions of TDP-43: three experiments, DMSO control about 46.1%, Figure 8
[3] = system: TDP-43 in motor neurons derived from iPS cells of healthy subjects; assay: Soluble and insoluble fractions of TDP-43 in motor neurons derived from iPS cells of healthy subjects, Western blot (Example 3); type: cell-based, human; details: 10 µmol/L, cultured for 20 days, Figure 7
[4] = Reported pharmacokinetics of D-cycloserine after oral administration to humans; type: in vivo; details: estimated; 15 mg orally administered twice daily
[5] = cited from earlier work
[6] = cited from earlier work; remark: listed apart in the source

| Structure (SMILES) | EC50 [1] [nM] | inhibition of cell death [1] | soluble fractions versus insoluble fractions of TDP-43 in the cells (TDP-43) | proportion of insoluble fractions based on a total number of soluble fractions and insoluble fractions of TDP-43 (TDP-43) | bands for soluble and insoluble fractions of TDP-43 [2] | average proportion of insoluble fractions of TDP-43 [2] | bands for soluble and insoluble fractions of TDP-43 [3] | trough value [4] [nmol/L] | Cmax ([5]; 15 mg orally administered to humans, read-out: maximum blood concentration (Cmax)) [µM] | half-life ([5]; reported) | side effects ([6]; 150 mg administered to humans) | side effects ([6]; 250 mg administered to humans in order to treat tuberculosis) | side effects ([6]; administered to humans, dose not stated) |
| --- | --- | --- | --- | --- | --- | --- | --- | --- | --- | --- | --- | --- | --- |
| N[C@@H]1CONC1=O [D-cycloserine, (4R)-4-Amino-1,2-oxazolidin-3-one] | 128 | cell death was inhibited; also recorded: exhibited an effect of inhibiting cell death in a concentration-dependent manner | the number of soluble fractions of TDP-43 was larger than the number of insoluble fractions of TDP-43 | less than half | bands for soluble fractions of TDP-43 were clearly observed, and bands for insoluble fractions were unclear | about 17.4% | bands for soluble fractions of TDP-43 were clearly observed, and bands for insoluble fractions were unclear | > 128 | ~5.6 | about 10 hours | causes headaches | serious side effects such as epileptiform seizure and mental confusion |  |
| N[C@H]1CONC1=O [L-cycloserine, (4S)-4-amino-1,2-oxazolidin-3-one] | 237 | exhibited an effect of inhibiting cell death in a concentration-dependent manner | the number of soluble fractions of TDP-43 was larger than the number of insoluble fractions of TDP-43 | less than half |  |  |  |  |  |  |  |  |  |
| CC(=O)NCCCS(=O)(=O)O [acamprosate, 3-(acetylamino)propylsulfonic acid] |  |  |  |  |  |  |  |  |  |  |  |  | anaphylaxis associated with symptoms such as generalized skin rash, rash, urticaria, stomatitis, laryngospasm, and shortness of breath; also recorded: angioedema associated with symptoms such as tongue swelling and lymphadenopathy |
| CCCN(CCC)CCc1cccc2c1CC(=O)N2 [ropinirole] | 198 |  |  |  | bands for soluble fractions of TDP-43 were clearly observed, and bands for insoluble fractions were unclear | about 19.3% | bands for soluble fractions of TDP-43 were clearly observed, and bands for insoluble fractions were unclear |  |  |  |  |  |  |
